Residue numbers refer to the chain shown, from its start.
Assays:
sTAAR365 T7.42V [1] = target: T1, sTAAR365 T7.42V (Petromyzon marinus, UniProt A0A678XMK4, T298V)
T1 sequence (A0A678XMK4 1-365 T298V): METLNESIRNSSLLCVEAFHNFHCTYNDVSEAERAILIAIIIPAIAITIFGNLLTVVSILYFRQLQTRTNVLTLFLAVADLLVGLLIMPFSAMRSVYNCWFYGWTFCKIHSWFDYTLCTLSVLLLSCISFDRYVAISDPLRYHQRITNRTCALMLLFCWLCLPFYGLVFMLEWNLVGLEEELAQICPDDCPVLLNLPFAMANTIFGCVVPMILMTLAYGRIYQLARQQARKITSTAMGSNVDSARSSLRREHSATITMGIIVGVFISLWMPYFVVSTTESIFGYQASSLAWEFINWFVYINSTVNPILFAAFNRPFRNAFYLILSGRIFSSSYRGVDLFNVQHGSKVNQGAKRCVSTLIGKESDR

sTAAR365 Y6.51L = target: T2, sTAAR365 Y6.51L (Petromyzon marinus, UniProt A0A678XMK4, Y272L); test: cell-based
T2 sequence (A0A678XMK4 1-365 Y272L): T1 sequence (A0A678XMK4 1-365 T298V) with Y272L, V298T

sTAAR365 T7.42S = sTAAR365 T7.42S (Petromyzon marinus, UniProt A0A678XMK4, T298S); test: cell-based
Sequence of sTAAR365 T7.42S (A0A678XMK4 whole entry T298S): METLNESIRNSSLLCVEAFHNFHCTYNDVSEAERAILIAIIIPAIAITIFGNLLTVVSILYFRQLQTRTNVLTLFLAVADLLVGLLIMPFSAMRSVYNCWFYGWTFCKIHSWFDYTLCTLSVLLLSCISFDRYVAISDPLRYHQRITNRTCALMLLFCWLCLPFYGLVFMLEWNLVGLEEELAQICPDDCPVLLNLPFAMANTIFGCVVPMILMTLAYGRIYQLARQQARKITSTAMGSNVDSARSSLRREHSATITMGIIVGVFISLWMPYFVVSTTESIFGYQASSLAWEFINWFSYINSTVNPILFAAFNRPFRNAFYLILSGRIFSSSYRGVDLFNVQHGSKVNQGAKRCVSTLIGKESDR

sTAAR365 T7.42V [2] = target: T1, sTAAR365 T7.42V; test: cell-based
sTAAR365 T7.42A = target: T3, sTAAR365 T7.42A (Petromyzon marinus, UniProt A0A678XMK4, T298A); test: cell-based
T3 sequence (A0A678XMK4 1-365 T298A): T1 sequence (A0A678XMK4 1-365 T298V) with V298A

sTAAR365 D3.32E [3] = target: T4, sTAAR365 D3.32E (Petromyzon marinus, UniProt A0A678XMK4, D114E); test: cell-based
T4 sequence (A0A678XMK4 1-365 D114E): T1 sequence (A0A678XMK4 1-365 T298V) with D114E, V298T

sTAAR365 W7.40Y = target: T5, sTAAR365 W7.40Y (Petromyzon marinus, UniProt A0A678XMK4, W296Y); test: cell-based
T5 sequence (A0A678XMK4 1-365 W296Y): T1 sequence (A0A678XMK4 1-365 T298V) with W296Y, V298T

sTAAR365 E7.36Q = sTAAR365 E7.36Q (Petromyzon marinus, UniProt A0A678XMK4, E292Q); test: cell-based
Sequence of sTAAR365 E7.36Q (A0A678XMK4 whole entry E292Q): as the sequence (A0A678XMK4 whole entry T298S) above, with E292Q, S298T counted along it

mTAAR9 W7.40Y = target: T6, mTAAR9 W7.40Y (Mus musculus, UniProt Q5QD04, W298Y); test: CRE-luciferase reporter assay, mTAAR9 mutant in Hana3A; type: cell-based; conditions: read-out: EC50 (mean ± S.D., n = 3)
T6 construct: expressed in transfected cells; host or cells: Hana3A (HEK293-derived)
T6 sequence (Q5QD04 whole entry W298Y): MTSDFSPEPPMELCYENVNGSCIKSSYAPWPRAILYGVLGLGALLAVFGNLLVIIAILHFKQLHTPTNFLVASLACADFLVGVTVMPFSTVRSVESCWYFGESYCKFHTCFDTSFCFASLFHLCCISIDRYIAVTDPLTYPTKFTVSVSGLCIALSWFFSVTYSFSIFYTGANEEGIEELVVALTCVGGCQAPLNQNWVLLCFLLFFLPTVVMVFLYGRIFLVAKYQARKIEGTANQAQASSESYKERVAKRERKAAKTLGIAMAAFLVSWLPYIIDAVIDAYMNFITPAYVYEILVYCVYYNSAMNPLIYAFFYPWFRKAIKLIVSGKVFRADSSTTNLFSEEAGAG

sTAAR365 W7.40F = sTAAR365 W7.40F (Petromyzon marinus, UniProt A0A678XMK4, W296F); test: cell-based
Sequence of sTAAR365 W7.40F (A0A678XMK4 whole entry W296F): as the sequence (A0A678XMK4 whole entry T298S) above, with W296F, S298T counted along it

sTAAR365 Y7.43F = sTAAR365 Y7.43F (Petromyzon marinus, UniProt A0A678XMK4, Y299F); test: cell-based
Sequence of sTAAR365 Y7.43F (A0A678XMK4 whole entry Y299F): as the sequence (A0A678XMK4 whole entry T298S) above, with S298T, Y299F counted along it

sTAAR365 Y7.43Q = sTAAR365 Y7.43Q (Petromyzon marinus, UniProt A0A678XMK4, Y299Q); test: cell-based
Sequence of sTAAR365 Y7.43Q (A0A678XMK4 whole entry Y299Q): as the sequence (A0A678XMK4 whole entry T298S) above, with S298T, Y299Q counted along it

sTAAR365 Y7.43L = sTAAR365 Y7.43L (Petromyzon marinus, UniProt A0A678XMK4, Y299L); test: cell-based
Sequence of sTAAR365 Y7.43L (A0A678XMK4 whole entry Y299L): as the sequence (A0A678XMK4 whole entry T298S) above, with S298T, Y299L counted along it

sTAAR365 D3.32E [4] = target: T4, sTAAR365 D3.32E
sTAAR365 Y6.51A = test: cAMP TR-FRET assay, sTAAR365 mutant in HEK293T; type: cell-based, sea lamprey; conditions: cAMP production
Description: All mutants were verified by DNA sequencing.

Compound	increase of EC50 vs wild-type sTAAR365 (sTAAR365 T7.42V [1])	EC50 (sTAAR365 Y6.51L) [µM]	EC50 (sTAAR365 T7.42S) [µM]	EC50 (sTAAR365 T7.42V [2]) [µM]	EC50 (sTAAR365 T7.42A) [µM]	EC50 (sTAAR365 D3.32E [3]) [µM]	EC50 (sTAAR365 W7.40Y) [µM]	EC50 (sTAAR365 E7.36Q) [µM]	EC50 (mTAAR9 W7.40Y) [µM]	EC50 (sTAAR365 W7.40F) [µM]	EC50 (sTAAR365 Y7.43F) [µM]	EC50 (sTAAR365 Y7.43Q) [µM]	EC50 (sTAAR365 Y7.43L) [µM]	Hill slope of concentration-response curve (sTAAR365 D3.32E [4])	increase of EC50 vs wild-type sTAAR365 (sTAAR365 D3.32E [4])	EC50 (mean ± S.D., n = 3) (sTAAR365 Y6.51A)
NCCCCCN [cadaverine]	over three	> 100	0.126 ± 0.013	9 ± 2	31 ± 24	14 ± 0.5	0.127 ± 0.041	0.06 ± 0.011	28 ± 8	0.223 ± 0.037	2 ± 0.2	7 ± 0.3	1 ± 0.2	1.44	three	
NCCCCN [putrescine]				> 500	> 500	> 500	> 500			> 500	> 1000		> 1000		one	loss
NCCCNCCCCNCCCN [spermine]		> 500	64 ± 7				530 ± 259	> 500								

— PMC8546428, “Convergent olfactory trace amine-associated receptors detect biogenic polyamines with distinct motifs via a conserved binding site” (The Journal of Biological Chemistry, 2021)
